Experimental data taken from patent publication US11724078B2, “Methods and systems for trans-tissue substance delivery using plasmaporation” (GOJO INDUSTRIES, INC., priority 2016, dated 2023).

Experiment: Transport of substance applied to plasma treated area through open pores in the SC
Conditions: applied more than 5 minutes after plasma treatment

passage through the SC when applied after 5 minutes: no longer passed through the SC
Substance: Dextran [10 kDa Dextran]
